# According to US5541163A, “Renin inhibiting N-(2-amino-2-oxoethyl)butanediamide derivatives” (Bio-Mega/Boehringer Ingelheim Research Inc., priority 1993, dated 1996):
# Target: T1, human renin (Homo sapiens, UniProt P00797)
# T1 construct: A human plasma pool is used as the source of both the substrate (angiotensinogen) and the enzyme (renin); from tissue; host or cells: human plasma pool
# T1 sequence (P00797 67-406): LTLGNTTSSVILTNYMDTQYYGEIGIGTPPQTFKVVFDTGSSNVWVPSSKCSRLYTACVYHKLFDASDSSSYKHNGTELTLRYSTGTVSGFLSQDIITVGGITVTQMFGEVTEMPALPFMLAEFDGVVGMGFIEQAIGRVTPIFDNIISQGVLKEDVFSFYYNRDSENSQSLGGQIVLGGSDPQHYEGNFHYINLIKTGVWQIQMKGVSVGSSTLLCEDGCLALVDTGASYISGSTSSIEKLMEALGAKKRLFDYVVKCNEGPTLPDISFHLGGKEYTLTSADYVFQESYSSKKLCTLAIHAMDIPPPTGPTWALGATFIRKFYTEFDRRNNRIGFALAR
# Test: Plasma renin assay (inhibition of human renin, angiotensin I by RIA)
# Type: biochemical
# Conditions: human plasma pool, pH 6.0, 2 h incubation at 37°
# Description: The assay is performed as follows: The test compound (i.e. the inhibitor) is dissolved in dimethylsulfoxide (1 mM stock solution) and diluted with an aqueous buffer solution of 270 mM 2-(N-morpholino)ethanesulfonic acid and 1% human serum albumin (pH 5.85, also containing dimercaprol and 8-hydroxyquinoline sulfate in accordance with the instructions of the RIA kit noted below) to give an assay mixture in which the final dimethylsulfoxide content is 1% (v/v).
# A human plasma pool is used as the source of both the substrate (angiotensinogen) and the enzyme (renin). The reaction is initiated by the addition of 50 μL of human plasma pool to 50 μL of various concentrations of inhibitor in the 1% dimethylsulfoxide assay buffer. The plasma renin activity is measured by the amount of angiotensin I generated at pH 6.0 following a 2 h incubation at 37°.
# Quantitation of angiotensin I is performed by radioimmunoassay (RIA kit from New England Nuclear-Dupont, Mississauga, ON, Canada). The enzymatic activity of renin is expressed in ng of angiotensin I generated (/mL/2 h). The extent of inhibition of the reaction is determined from the amount of angiotensin I generated in reference to a control prepared without inhibitor. Nonlinear regression analysis is used to calculate the IC50 values, i.e. the molar concentration of the test compound required to cause a 50% inhibition of the enzyme activity.
row,Structure (SMILES),IC50 [nM]
1,"CC(C)C[C@H](O)[C@H](O)[C@H](CC1CCCCC1)NC(=O)[C@@H](CC(=O)N(CC(=O)N(C)CCc1ccccn1)Cc1ccccc1F)Cc1csc(N)n1 [Compound 82, N^4-[(2-fluorophenyl)methyl]-N^4 -{2-{methyl[2-(2-pyridinyl)ethyl]-amino}-2-oxoethyl}-N^1-[1(S)-(cyclohexylmethyl)-2(R),3(S)-dihydroxy-5-methylhexyl]-2(R)-[(2-amino-4-thiazolyl)methyl]butanediamide]",3
2,CC(C)C[C@H](O)[C@H](O)[C@H](CC1CCCCC1)NC(=O)[C@@H](CC(=O)N(CC(=O)N1CCOCC1)CC1CCCCC1)Cc1csc(N)n1 [Compound 49],1.5
3,"COc1ccc(CN(CC(=O)N(C)C)C(=O)C[C@@H](CC2CC2)C(=O)N[C@@H](CC2CCCCC2)[C@@H](O)[C@@H](O)CC(C)C)cc1 [Compound 10, N^4-[2-(dimethylamino)-2-oxoethyl]-N^4-[(4-methoxyphenyl)methyl]-N^1-[1(S)-(cyclohexylmethyl)-2(R),3(S)-dihydroxy-5-methylhexyl]-2(R)-(cyclopropylmethyl)butanediamide]",440
4,"CC(C)C[C@H](O)[C@H](O)[C@H](CC1CCCCC1)NC(=O)[C@@H](CC(=O)N(CC(=O)N(C)CCc1cccnc1)CC1CCCCC1)Cc1csc(N)n1 [Compound 76, N^4-(cyclohexylmethyl)-N^4 -{2-{methyl[2-(3-pyridinyl)ethyl]-amino}-2-oxoethyl}-N^1-[1(S)-(cyclohexylmethyl)-2(R),3(S)-dihydroxy-5-methylhexyl]-2(R)-[(2-amino-4-thiazolyl)methyl]butanediamide]",0.4
5,"CC(C)C[C@H](O)[C@H](O)[C@H](CC1CCCCC1)NC(=O)[C@@H](CC(=O)N(CCC1CCCC1)CC(=O)N(C)CCc1ccccn1)Cc1csc(N)n1 [Compound 87, N^4-(2-cyclopentylethyl)-N^4 -{2-{methyl[2-(2-pyridinyl)ethyl]amino}-2-oxoethyl}-N^1-[1(S)-(cyclohexylmethyl)-2(R),3(S)-dihydroxy-5-methylhexyl]-2(R)-[(2-amino-4-thiazolyl)-methyl]butanediamide]",2
6,"CC(C)C[C@H](O)[C@H](O)[C@H](CC1CCCCC1)NC(=O)[C@@H](CC(=O)N(CC(=O)N(C)CCc1ccccn1)Cc1ccccc1)CC1CC1 [Compound 12, N^4-benzyl-N^4 -{2-{methyl[2-(2-pyridinyl)ethyl]amino}-2-oxoethyl}-N^1-[1(S)-(cyclohexylmethyl)-2(R),3(S)-dihydroxy-5-methylhexyl]-2(R)-(cyclopropylmethyl)butanediamide]",34
7,"CC(C)C[C@H](O)[C@H](O)[C@H](CC1CCCCC1)NC(=O)[C@@H](CC(=O)N(CC(=O)N1CCOCC1)CC1CCCCC1)CC1CC1 [Compound 35, N^4-(cyclohexylmethyl)-N^4-(2-morpholino-2-oxoethyl)-N^1-[1(S)-(cyclohexylmethyl)-2(R),3(S)-dihydroxy-5-methylhexyl]-2(R)-(cyclopropylmethyl)butanediamide]",8
8,"CC(C)C[C@H](O)[C@H](O)[C@H](CC1CCCCC1)NC(=O)[C@@H](CC(=O)N(CC(=O)N(C)C)CC1CCCCCC1)Cc1cccnc1 [Compound 70, N^4-(cycloheptylmethyl)-N^4-[2-(dimethylamino)-2-oxoethyl]-N^1-[1(S)-(cyclohexylmethyl)-2(R),3(S)-dihydroxy-5-methylhexyl]-2(R)-(3-pyridinylmethyl)butanediamide]",7
9,"CC(C)C[C@H](O)[C@H](O)[C@H](CC1CCCCC1)NC(=O)[C@@H](CC(=O)N(CC(=O)N(C)C)[C@@H](C)c1ccccc1)Cc1cscn1 [Compound 30, N^4-[2-(dimethylamino)-2-oxoethyl]-N^4-[1(S)-phenylethyl]-N^1-[1(S)-(cyclohexylmethyl)-2(R),3(S)-dihydroxy-5-methylhexyl]-2(R)-(4-thiazolylmethyl)butanediamide]",2.5
10,"CC(C)C[C@H](O)[C@H](O)[C@H](CC1CCCCC1)NC(=O)[C@@H](CC(=O)N(CC(=O)N(C)C)CC1CCCCC1)Cc1nccs1 [Compound 37, N^4-(cyclohexylmethyl)-N^4-[2-(dimethylamino)-2-oxoethyl]-N^1-[1(S)-(cyclohexylmethyl)-2(R),3(S)-dihydroxy-5-methylhexyl]-2(S)-(2-Thiazolylmethyl)butanediamide]",1.6

# The remaining compounds from weak to strong by IC50, led by results:
row,IC50 [nM],Structure (SMILES)
1,290,"CC(C)C[C@H](O)[C@H](O)[C@H](CC1CCCCC1)NC(=O)[C@@H](CC(=O)N(CC(=O)N(C)C(C)(C)C)Cc1ccccc1)CC1CC1 [Compound 5, N^4-benzyl-N^4 -{2-[methyl(1,1-dimethylethyl)amino]-2-oxoethyl}-N^1-[1(S)-(cyclohexylmethyl)-2(R),3(S)-dihydroxy-5-methylhexyl]-2(R)-(cyclopropylmethyl)butanediamide]"
2,120,"CC(C)C[C@H](O)[C@H](O)[C@H](CC1CCCCC1)NC(=O)[C@@H](CC(=O)N(CC(=O)N1CCOCC1)[C@@H](C)c1ccccc1)CC1CC1 [Compound 33, N^4-[1(S)-phenylethyl-N^4-(2-morpholino-2-oxoethyl)-N^1-1(S)-(cyclohexylmethyl)-2(R),3(S)-dihydroxy-5-methylhexyl]-2(R)-(cyclopropylmethyl)butanediamide]"
3,68,"CC(C)C[C@H](O)[C@H](O)[C@H](CC1CCCCC1)NC(=O)[C@@H](CC(=O)N(CC(=O)N(C)CCc1ccncc1)Cc1ccccc1)CC1CC1 [Compound 29, N^4-benzyl-N^4 -{2-{methyl[2-(4-pyridinyl)ethyl]amino}-2-oxoethyl}-N^1-[1(S)-(cyclohexylmethyl)-2(R)3(S)-dihydroxy-5-methylhexyl]-2(R)-(cyclopropylmethyl)butanediamide]"
4,20,"CC(C)C[C@H](O)[C@H](O)[C@H](CC1CCCCC1)NC(=O)[C@@H](CC(=O)N(CC(=O)N(C)CCc1ccccn1)[C@@H](C)c1ccccc1)CC1CC1 [Compound 22, N^4-[1(S)-phenylethyl]-N^4 -{2-{methyl[2-(2-pyridinyl)ethyl]-amino}-2-oxoethyl}-N^1-(1(S)-(cyclohexylmethyl)-2(R),3(S)-dihydroxy-5-methylhexyl]-2(R)-(cyclopropylmethyl)-butanediamide]"
5,18,"CC(C)OC(=O)[C@H](O)[C@H](CC1CCCCC1)NC(=O)[C@@H](CC(=O)N(CC(=O)N(C)CCc1ccccn1)CC1CCCCC1)Cc1csc(N)n1 [Compound 74, N^4-(cyclohexylmethyl)-N^4 -{2-{methyl-[2-(2-pyridinyl)ethyl]amino}-2-oxoethyl}-N^1-[1(S)-(cyclohexylmethyl)-2(R)-hydroxy-3-(1-methylethoxy)-3-oxopropyl]-2(R)-[(2-amino-4-thiazolyl)methyl]butanediamide]"
6,13,"CC(C)C[C@H](O)[C@H](O)[C@H](CC1CCCCC1)NC(=O)[C@@H](CC(=O)N(CC(=O)N(C)C)CC1CCCCC1)CC1CC1 [Compound 31, N^4-(cyclohexylmethyl)-N^4-(2-(dimethylamino)-2-oxoethyl]-N^1-[1(S)-(cyclohexylmethyl)-2(R),3(S)-dihydroxy-5-methylhexyl]-2(R)-(cyclopropylmethyl)butanediamide]"
7,10,"CC(C)C[C@H](O)[C@H](O)[C@H](CC1CCCCC1)NC(=O)[C@@H](CC(=O)N(CC(=O)N(C)CCc1ccccn1)CC1CCCCC1)Cc1cccnc1 [Compound 66, N^4-(cyclohexylmethyl)-N^4 -{2-{methyl-[2-(2-pyridinyl)ethyl]amino}-2-oxoethyl}-N^1-[1(S)-(cyclohexylmethyl)-2(R),3(S)-dihydroxy-5-methylhexyl]-2(R)-(3-pyridinylmethyl)-butanediamide]"
8,6,"CC(C)C[C@H](O)[C@H](O)[C@H](CC1CCCCC1)NC(=O)[C@@H](CC(=O)N(CC(=O)N(C)CCc1ccccn1)Cc1nccs1)Cc1csc(N)n1 [Compound 86, N^4 -{2-{methyl[2-(2-pyridinyl)ethyl]-amino}-2-oxoethyl}-N^4-(2-thiazolylmethyl)-N^1-[1(S)-(cyclohexylmethyl)-2(R),3(S)-dihydroxy-5-methylhexyl]-2(R)-[(2-amino-4-thiazolyl)methyl]-butanediamide]"
9,1,"CC(C)C[C@H](O)[C@H](O)[C@H](CC1CCCCC1)NC(=O)[C@@H](CC(=O)N(CC(=O)N(C)C)CC1CCCC1)Cc1csc(N)n1 [Compound 85, N^4-(cyclopentylmethyl)-N^4-[2-(dimethylamino)-2-oxoethyl]-N^1-[1(S)-(cyclohexylmethyl)-2(R),3(S)-dihydroxy-5-methylhexyl]-2(R)-[(2-amino-4-thiazolyl)methyl]butanediamide]"
10,0.6,"CC(C)C[C@H](O)[C@H](O)[C@H](CC1CCCCC1)NC(=O)[C@@H](CC(=O)N(CC(=O)N(C)C)CC1CCCCCC1)Cc1csc(N)n1 [Compound 78, N^4-(cycloheptylmethyl)-N^4-[2-(dimethylamino)-2-oxoethyl]-N^1-[1(S)-(cyclohexylmethyl)-2(R),3(S)-dihydroxy-5-methylhexyl]-2(R)-[(2-amino-4-thiazolyl)methyl]butanediamide]"
